Values joined by “and” are separate entries in the source; they are usually repeats but may differ in a detail not shown here. Equal values may be shown once.
Legend:
Melanocortin receptor 4 [1] = target: T1, Melanocortin receptor 4 (Homo sapiens, UniProt P32245); assay: Effective concentration towards human melanocortin-4 receptor mediated cAMP accumulation in CHO cells; format: functional, cell-based
Melanocortin receptor 5 [2] = target: T2, Melanocortin receptor 5 (Homo sapiens, UniProt P33032); assay: Effective concentration towards human melanocortin-5 receptor mediated cAMP accumulation in CHO cells; format: functional, cell-based
T2 sequence (P33032 whole entry): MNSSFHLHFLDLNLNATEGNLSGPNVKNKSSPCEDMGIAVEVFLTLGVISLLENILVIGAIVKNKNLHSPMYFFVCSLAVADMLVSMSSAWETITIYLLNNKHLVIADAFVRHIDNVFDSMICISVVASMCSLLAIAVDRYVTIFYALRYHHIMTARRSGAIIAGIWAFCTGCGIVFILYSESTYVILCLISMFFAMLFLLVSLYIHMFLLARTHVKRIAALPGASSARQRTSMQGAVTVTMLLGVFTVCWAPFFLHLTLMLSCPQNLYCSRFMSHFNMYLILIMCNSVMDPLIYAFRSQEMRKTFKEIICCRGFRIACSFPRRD

Melanocortin receptor 5 [3] = target: T2, Melanocortin receptor 5; assay: Concentration of compound at 50% maximum cAMP accumulation at human melanocortin-5 receptor; format: functional
Melanocortin receptor 3 [4] = target: T3, Melanocortin receptor 3 (Homo sapiens, UniProt P41968); assay: Concentration of compound at 50% maximum cAMP accumulation at human melanocortin-3 receptor; format: functional
T3 sequence (P41968 whole entry): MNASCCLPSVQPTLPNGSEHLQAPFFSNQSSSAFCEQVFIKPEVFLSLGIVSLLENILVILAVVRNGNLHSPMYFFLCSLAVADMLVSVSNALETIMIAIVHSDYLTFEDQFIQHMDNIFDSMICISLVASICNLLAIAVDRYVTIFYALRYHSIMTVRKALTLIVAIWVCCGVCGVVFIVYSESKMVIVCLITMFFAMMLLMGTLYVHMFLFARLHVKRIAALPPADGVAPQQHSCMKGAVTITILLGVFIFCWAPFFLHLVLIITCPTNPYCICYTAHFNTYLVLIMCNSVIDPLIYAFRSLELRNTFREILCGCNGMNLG

Melanocortin receptor 4 [5] = target: T1, Melanocortin receptor 4; assay: Concentration for 50% inhibition of human melanocortin-4 receptor expressed in CHO cells using [125I]NDP-alpha-MSH as radioligand; format: cell-based
Melanocortin receptor 3 [6] = target: T3, Melanocortin receptor 3; assay: Effective concentration towards human melanocortin-3 receptor mediated cAMP accumulation in CHO cells; format: functional, cell-based, Rattus norvegicus
[7] = target: T4, Melanocyte-stimulating hormone receptor (Homo sapiens, UniProt Q01726); assay: Concentration of compound at 50% maximum cAMP accumulation at human melanocortin-1 receptor; format: functional
Target sequence in this assay (Q01726 whole entry, looked up): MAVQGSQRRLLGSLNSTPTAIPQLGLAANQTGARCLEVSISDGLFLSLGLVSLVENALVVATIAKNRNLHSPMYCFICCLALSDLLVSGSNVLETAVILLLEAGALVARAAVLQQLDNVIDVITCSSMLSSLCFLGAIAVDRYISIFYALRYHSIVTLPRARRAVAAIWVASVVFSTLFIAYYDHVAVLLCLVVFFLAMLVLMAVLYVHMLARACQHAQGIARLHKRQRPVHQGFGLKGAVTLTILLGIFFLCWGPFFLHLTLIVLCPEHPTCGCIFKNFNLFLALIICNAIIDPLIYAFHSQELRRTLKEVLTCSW

[8] = Clearance at 0.5 mg/kg intravenous administration and 2 mg/kg peroral administration; format: ADME, organism-based, Canis lupus familiaris; details: dog, in vivo
[9] = Half life at 1 mg/kg intravenous administration and 5 mg/kg peroral administration; format: ADME, organism-based; details: rat, in vivo
Melanocortin receptor 3 [10] = target: T3, Melanocortin receptor 3; assay: Concentration for 50% inhibition of human melanocortin-3 receptor expressed in CHO cells using [125I]NDP-alpha-MSH as radioligand; format: cell-based
[11] = Half life at 1 mg/kg intravenous administration and 2 mg/kg peroral administration; format: ADME, organism-based; details: cercopithecidae, in vivo
Rattus norvegicus = assay: Percent increase in erectile activity in rats after intravenous administration of 3 mg/kg compound; format: functional
[12] = Percent bioavailability at 1 mg/kg intravenous administration and 2 mg/kg peroral administration; format: ADME, organism-based; details: cercopithecidae, in vivo, po
[13] = Clearance at 1 mg/kg intravenous administration and 5 mg/kg peroral administration; format: ADME, organism-based; details: rat, in vivo
[14] = Percent bioavailability at 0.5 mg/kg intravenous administration and 2 mg/kg peroral administration; format: ADME, organism-based, Canis lupus familiaris; details: dog, in vivo, po
[15] = target: Melanocortin receptor 3 (Rattus norvegicus) (UniProt P32244); assay: Concentration of compound at 50% maximum cAMP accumulation at rat melanocortin-3 receptor; format: functional
Chain of Melanocortin receptor 3 (Rattus norvegicus) (P32244 whole entry): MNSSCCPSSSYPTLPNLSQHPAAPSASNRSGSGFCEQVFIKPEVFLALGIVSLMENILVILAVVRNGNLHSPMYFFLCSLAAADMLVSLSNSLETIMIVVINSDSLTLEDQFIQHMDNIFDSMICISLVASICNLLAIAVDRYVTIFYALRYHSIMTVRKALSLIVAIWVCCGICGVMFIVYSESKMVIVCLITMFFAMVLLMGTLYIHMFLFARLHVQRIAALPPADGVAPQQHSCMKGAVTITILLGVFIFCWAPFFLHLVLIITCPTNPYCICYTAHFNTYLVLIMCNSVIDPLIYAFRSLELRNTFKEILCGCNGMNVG

[16] = Percent bioavailability at 1 mg/kg intravenous administration and 5 mg/kg peroral administration; format: ADME, organism-based; details: rat, in vivo, po
[17] = Maximum time taken by the compound at 0.5 mg/kg intravenous administration and 2 mg/kg peroral administration; format: ADME, organism-based, Canis lupus familiaris; details: dog, in vivo, po
[18] = target: T4, Melanocyte-stimulating hormone receptor; assay: Concentration for 50% inhibition of human melanocortin-1 receptor expressed in CHO cells using [125I]-NDP-alpha-MSH as radioligand; format: cell-based
Target sequence in this assay (Q01726 whole entry): as the sequence (Q01726 whole entry, looked up) above

[19] = Vdss at 1 mg/kg intravenous administration and 5 mg/kg peroral administration; format: ADME, organism-based; details: rat, in vivo, read-out: Vdss
Melanocortin receptor 5 [20] = target: T2, Melanocortin receptor 5; assay: Concentration for 50% inhibition of human melanocortin-5 receptor expressed in CHO cells using [125I]NDP-alpha-MSH as radioligand; format: cell-based
[21] = target: T4, Melanocyte-stimulating hormone receptor; assay: Effective concentration towards human melanocortin-1 receptor mediated cAMP accumulation in CHO cells; format: functional, cell-based
Target sequence in this assay (Q01726 whole entry): as the sequence (Q01726 whole entry, looked up) above

[22] = Clearance at 1 mg/kg intravenous administration and 2 mg/kg peroral administration; format: ADME, organism-based; details: cercopithecidae, in vivo
[23] = Half life at 0.5 mg/kg intravenous administration and 2 mg/kg peroral administration; format: ADME, organism-based, Canis lupus familiaris; details: dog, in vivo
[24] = Vdss at 1 mg/kg intravenous administration and 2 mg/kg peroral administration; format: ADME, organism-based; details: cercopithecidae, in vivo, read-out: Vdss
[25] = Vdss at 0.5 mg/kg intravenous administration and 2 mg/kg peroral administration; format: ADME, organism-based, Canis lupus familiaris; details: dog, in vivo, read-out: Vdss
[26] = target: Melanocortin receptor 4 (Rattus norvegicus) (UniProt P70596); assay: Concentration of compound at 50% maximum cAMP accumulation at rat melanocortin-4 receptor; format: functional
Chain of Melanocortin receptor 4 (Rattus norvegicus) (P70596 whole entry): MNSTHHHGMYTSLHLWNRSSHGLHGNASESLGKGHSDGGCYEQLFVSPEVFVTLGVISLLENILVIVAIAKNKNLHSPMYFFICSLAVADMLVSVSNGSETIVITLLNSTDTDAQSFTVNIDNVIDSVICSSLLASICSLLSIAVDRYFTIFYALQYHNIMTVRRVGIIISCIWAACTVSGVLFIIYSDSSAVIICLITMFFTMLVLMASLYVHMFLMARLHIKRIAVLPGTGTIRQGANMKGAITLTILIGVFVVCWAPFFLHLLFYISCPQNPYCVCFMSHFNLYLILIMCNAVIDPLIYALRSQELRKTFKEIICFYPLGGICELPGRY

[27] = Maximum time taken by the compound at 1 mg/kg intravenous administration and 2 mg/kg peroral administration; format: ADME, organism-based; details: cercopithecidae, in vivo, po
[28] = target: Melanocortin receptor 4 (Mus musculus) (UniProt P56450); assay: Concentration of compound at 50% maximum cAMP accumulation at mouse melanocortin-4 receptor; format: functional
Chain of Melanocortin receptor 4 (Mus musculus) (P56450 whole entry): as the sequence (P70596 whole entry) above, with H21Y, S36P, T199S, A239T, P329S, G330S counted along it

[29] = Percentage of cAMP accumulation at 10 uM of compound relative toa-MSH was determined; format: functional
[30] = Maximum time taken by the compound at 1 mg/kg intravenous administration and 5 mg/kg peroral administration; format: ADME, organism-based; details: rat, in vivo, po

T1 sequence (P32245 whole entry): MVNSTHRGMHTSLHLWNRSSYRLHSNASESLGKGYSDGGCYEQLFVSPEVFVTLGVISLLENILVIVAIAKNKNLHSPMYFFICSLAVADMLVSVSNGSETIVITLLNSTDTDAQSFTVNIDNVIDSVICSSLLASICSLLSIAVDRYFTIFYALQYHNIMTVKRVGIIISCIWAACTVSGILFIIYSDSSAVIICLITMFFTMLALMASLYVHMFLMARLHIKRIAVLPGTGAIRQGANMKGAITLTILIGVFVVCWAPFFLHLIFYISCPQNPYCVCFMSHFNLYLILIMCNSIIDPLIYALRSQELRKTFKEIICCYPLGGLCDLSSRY

**Q.** Which results are given for `C[C@H](N)C(=O)N1CCN[C@H](C(=O)N[C@H](Cc2ccc(F)cc2)C(=O)N2CCC(C(=O)NC(C)(C)C)(C3CCCCC3)CC2)C1`?
**A.** EC50 (Melanocortin receptor 4 [1]): 270 nM; EC50 (Melanocortin receptor 5 [2]): 2000 nM; cAMP accumulation (Melanocortin receptor 5 [3]): 27%; cAMP accumulation (Melanocortin receptor 3 [4]): 12%; IC50 (Melanocortin receptor 4 [5]): 30 nM

**Q.** For `CC(C)(C)NC(=O)C1(C2CCCCC2)CCN(C(=O)[C@@H](Cc2ccc(F)cc2)NC(=O)[C@@H]2CN(CC(F)F)CCN2)CC1`, which EC50 (Melanocortin receptor 4 [1]) is on record?
**A.** 52 nM

**Q.** And the EC50 (Melanocortin receptor 5 [2])?
**A.** 510 nM

**Q.** And the cAMP accumulation (Melanocortin receptor 5 [3])?
**A.** 19%

**Q.** And the cAMP accumulation (Melanocortin receptor 3 [4])?
**A.** 6%

**Q.** And the IC50 (Melanocortin receptor 4 [5])?
**A.** 13 nM

**Q.** For `CN1CCN[C@H](C(=O)N[C@@H](Cc2ccc(F)cc2)C(=O)N2CCC(C(=O)NC(C)(C)C)(C3CCCCC3)CC2)C1`, which cAMP accumulation (Melanocortin receptor 5 [3]) is on record?
**A.** 3%

**Q.** What about the cAMP accumulation (Melanocortin receptor 3 [4]) of the same molecule?
**A.** 1%

**Q.** Which EC50 (Melanocortin receptor 4 [1]) does the source give for `CN1CCNC[C@H]1C(=O)N[C@H](Cc1ccc(F)cc1)C(=O)N1CCC(C(=O)NC(C)(C)C)(C2CCCCC2)CC1` here?
**A.** 29 nM

**Q.** What about the EC50 (Melanocortin receptor 5 [2]) of the same molecule?
**A.** 3300 nM

**Q.** What about the EC50 (Melanocortin receptor 3 [6]) of the same molecule?
**A.** 2900 nM

**Q.** And the cAMP accumulation (Melanocortin receptor 5 [3])?
**A.** 19%

**Q.** What about the cAMP accumulation (Melanocortin receptor 3 [4]) of the same molecule?
**A.** 19%

**Q.** And the IC50 (Melanocortin receptor 4 [5])?
**A.** 87 nM

**Q.** Which EC50 (Melanocortin receptor 4 [1]) does the source give for `CC(C)CN1CCN[C@H](C(=O)N[C@H](Cc2ccc(F)cc2)C(=O)N2CCC(C(=O)NC(C)(C)C)(C3CCCCC3)CC2)C1` here?
**A.** 34 nM

**Q.** What about the EC50 (Melanocortin receptor 5 [2]) of the same molecule?
**A.** 340 nM

**Q.** What about the cAMP accumulation (Melanocortin receptor 5 [3]) of the same molecule?
**A.** 22%

**Q.** And the cAMP accumulation (Melanocortin receptor 3 [4])?
**A.** 19%

**Q.** And the IC50 (Melanocortin receptor 4 [5])?
**A.** 8 nM

**Q.** For `CC(C)(C)NC(=O)C1(C2CCCCC2)CCN(C(=O)[C@@H](Cc2ccc(F)cc2)NC(=O)[C@@H]2CNCCN2C(=O)OC(C)(C)C)CC1`, which EC50 (Melanocortin receptor 4 [1]) is on record?
**A.** 13 nM

**Q.** What about the EC50 (Melanocortin receptor 5 [2]) of the same molecule?
**A.** 1800 nM

**Q.** What about the cAMP accumulation (Melanocortin receptor 5 [3]) of the same molecule?
**A.** 43%

**Q.** And the cAMP accumulation (Melanocortin receptor 3 [4])?
**A.** 10%

**Q.** And the IC50 (Melanocortin receptor 4 [5])?
**A.** 18 nM

**Q.** What does the source list for `CN1CCN[C@@H](C(=O)N[C@H](Cc2ccc(F)cc2)C(=O)N2CCC(C(=O)NC(C)(C)C)(C3CCCCC3)CC2)C1`?
**A.** EC50 (Melanocortin receptor 4 [1]): 82 nM; EC50 (Melanocortin receptor 5 [2]): 2700 nM; cAMP accumulation (Melanocortin receptor 5 [3]): 39%; cAMP accumulation (Melanocortin receptor 3 [4]): 7%; IC50 (Melanocortin receptor 4 [5]): 52 nM

**Q.** For `CN1CCN[C@H](C(=O)N[C@H](Cc2ccc(F)cc2)C(=O)N2CCC(C(=O)NC(C)(C)C)(C3CCCCC3)CC2)C1`, which cAMP accumulation [7] is on record?
**A.** 85%

**Q.** And the clearance [8]?
**A.** 5.6 mL/min/kg

**Q.** And the half-life [9]?
**A.** 1.6 h

**Q.** And the EC50 (Melanocortin receptor 4 [1])?
**A.** 11 nM (2×) and 6 nM and 16 nM

**Q.** What about the IC50 (Melanocortin receptor 3 [10]) of the same molecule?
**A.** 2300 nM and 1100 nM and 1600 nM

**Q.** And the half-life [11]?
**A.** 1.3 h

**Q.** And the Activity (Rattus norvegicus)?
**A.** 21.2%

**Q.** And the bioavailability [12]?
**A.** 11%

**Q.** And the clearance [13]?
**A.** 48.7 mL/min/kg

**Q.** What about the EC50 (Melanocortin receptor 5 [2]) of the same molecule?
**A.** 1900 nM

**Q.** What about the EC50 (Melanocortin receptor 5 [2]; cho) of the same molecule?
**A.** 1900 nM

**Q.** What about the bioavailability [14] of the same molecule?
**A.** 17%

**Q.** And the cAMP accumulation [15]?
**A.** 21%

**Q.** And the EC50 (Melanocortin receptor 3 [6])?
**A.** 990 nM

**Q.** And the bioavailability [16]?
**A.** 9%

**Q.** What about the cAMP accumulation (Melanocortin receptor 5 [3]) of the same molecule?
**A.** 32%

**Q.** And the Tmax [17]?
**A.** 0.75 h

**Q.** And the IC50 [18]?
**A.** 1700 nM

**Q.** And the Vd [19]?
**A.** 5.4 L/kg

**Q.** What about the IC50 (Melanocortin receptor 5 [20]) of the same molecule?
**A.** 2400 nM and 13000 nM

**Q.** What about the EC50 [21] of the same molecule?
**A.** 350 nM

**Q.** And the clearance [22]?
**A.** 15.7 mL/min/kg

**Q.** And the half-life [23]?
**A.** 4.1 h

**Q.** And the Vd [24]?
**A.** 1.2 L/kg

**Q.** What about the Vd [25] of the same molecule?
**A.** 1.2 L/kg

**Q.** What about the cAMP accumulation [26] of the same molecule?
**A.** 76%

**Q.** What about the Tmax [27] of the same molecule?
**A.** 5 h

**Q.** And the cAMP accumulation (Melanocortin receptor 3 [4])?
**A.** 11%

**Q.** What about the cAMP accumulation [28] of the same molecule?
**A.** 66%

**Q.** And the IC50 (Melanocortin receptor 4 [5])?
**A.** 8 nM and 7 nM and 16 nM (2×)

**Q.** And the Activation [29]?
**A.** 4% and 7% and 11%

**Q.** What about the Tmax [30] of the same molecule?
**A.** 1.54 h

**Q.** What does the source list for `CCN1CCN[C@H](C(=O)N[C@H](Cc2ccc(F)cc2)C(=O)N2CCC(C(=O)NC(C)(C)C)(C3CCCCC3)CC2)C1`?
**A.** EC50 (Melanocortin receptor 4 [1]): 52 nM; EC50 (Melanocortin receptor 5 [2]): 840 nM; cAMP accumulation (Melanocortin receptor 5 [3]): 20%; cAMP accumulation (Melanocortin receptor 3 [4]): 3%; IC50 (Melanocortin receptor 4 [5]): 20 nM

Reference: ChEMBL document CHEMBL1145148, “Discovery of (2S)-N-[(1R)-2-[4-cyclohexyl-4-[[(1,1-dimethylethyl)amino]carbonyl]-1-piperidinyl]-1-[(4-fluorophenyl)methyl]-2-oxoethyl]-4-methyl-2-piperazinecarboxamide (MB243), a potent and selective melanocortin subtype-4 receptor agonist” (Bioorg Med Chem Lett, 2005)
